These are literature values, as cited in patent publication US20260199305A1, “LONG-ACTING ORAL PHARMACEUTICAL COMPRISING HYPOXIA-INDUCIBLE FACTOR PROLYL HYDROLASE INHIBITOR AND USE THEREOF” (Kind Pharmaceutical, priority 2023, published 2026).

Where two headings read alike, the source gives them in different places.

The conditions of this series: cited from earlier work.

As for `O=C(O)CNC(=O)c1c(O)cc(CCc2ccccc2)n2ncnc12` [Enarodustat], the t½ – broadly, the time needed for the level to fall by half in the phase considered – (literature value) was 8.2 to 8.7 h.
Regarding `O=C(O)CNC(=O)c1c(O)c2ccccc2n(OCC2CC2)c1=O` [Desidustat], the t½ (literature value) was 6 to 15 h.
As to `O=C(O)CNC(=O)C1C(=O)N(C2CCCCC2)C(=O)N(C2CCCCC2)C1=O` [Daprodustat], where the note is “in patients with chronic kidney disease anemia, literature”, the t½ was ~ 7 hours.
In the case of `Cc1nc(C(=O)NCC(=O)O)c(O)c2ccc(Oc3ccccc3)cc12` [Roxadustat], the t½ (literature value) is 12 to 15 h.
As for `O=c1c(-n2ccnn2)c[nH]n1-c1cc(N2CCOCC2)ncn1` [Molidustat], under “literature value”, the t½ is 4 to 10 h.
With `O=C(O)CNC(=O)c1ncc(-c2cccc(Cl)c2)cc1O` [Vadadustat], under “literature value”, the t½ was 4.7 to 9.1 h.
With `Cn1c(=O)cc(N2CCC[C@@H](N)C2)n(Cc2cc(F)ccc2C#N)c1=O` [Trelagliptin], where the note is “literature value (J Diabetes Investig 2018)”, the “elimination half-life (t½)” value was 38.44 to 54.26 h.
